Key:
Mouse STC-1 cells = assay: STC-1 GLP-1 assay (GLP-1 secretion); type: cell-based; conditions: Mouse STC-1 cells, GLP-1 secretion, 2 h; read-out: Mouse STC-1 HTRF GLP-1 Activity (EC50)
In short: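 Secreted active GLP-1 was measured by HTRF after overnight room-temperature incubation of supernatant with the conjugates. Supernatants came from a 2 h, 37° C. compound exposure (12-point half-log series) in HBSS with DPP-IV and protease inhibitors and 0.1% fatty acid free BSA. STC-1 cells had been seeded two days earlier in stripped-serum DMEM; EC50 reported.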

[1] = Pharmacokinetic profile in mice after oral gavage; type: in vivo, mouse; conditions: mouse; fasted male Hilltop mice, 10 mg/kg oral gavage, plasma; read-out: Cmax
In short: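 Plasma exposure (Cmax, AUC) by non-compartmental analysis of LC-MS/MS data, orbital blood taken at 0, 0.25, 0.5, 1, 2 and 4 h, each value averaging three mice. Dosing: 10 mg/kg oral gavage to overnight-fasted male Hilltop mice (8 weeks), vehicle PEG400/CMC/Tween-80.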

Row | Structure (SMILES) | EC50 (Mouse STC-1 cells) [nM] | Cmax [1] [ng/mL]
1 | N#Cc1ccc(CCNC(=O)[C@@H]2CCN2c2cc(N3CCC(CCNC(=O)NCS(=O)(=O)O)CC3)nc(C(F)(F)F)n2)cc1 [Compound 270, (S)-(3-(2-(1-(6-(2-((4-cyanophenethyl)carbamoyl)azetidin-1-yl)-2-(trifluoromethyl)pyrimidin-4-yl)piperidin-4-yl)ethyl)ureido)-methanesulfonic acid] | < 100 | 5.4
2 | N#Cc1ccc(CCNC(=O)[C@@H]2CCCN2c2cc(-c3ccc(CCC(=O)NCS(=O)(=O)O)cc3)cc(C(F)(F)F)n2)cc1 [Compound 206, (S)-(3-(4-(2-(2-((4-cyanophenethyl)carbamoyl)pyrrolidin-1-yl)-6-(trifluoromethyl)pyridin-4-yl)phenyl)propanamido)methanesulfonic acid] | 100 to 999 | 3.8
3 | COc1cc(C(F)(F)F)ccc1CCNC(=O)[C@@H]1CCN1c1cc(N2CCC(CCC(=O)O)CC2)nc(C(F)(F)F)n1 [Compound 239, (S)-3-(1-(6-(2-((2-methoxy-4-(trifluoromethyl)phenethyl)carbamoyl)azetidin-1-yl)-2-(trifluoromethyl)pyrimidin-4-yl)piperidin-4-yl)propanoic acid] | < 100 | 53
4 | N#Cc1ccc(CCNC(=O)[C@@H]2CCN2c2cc(N3CCC(CO)CC3)nc(C(F)(F)F)n2)cc1 [Compound 219, (S)—N-(4-cyanophenethyl)-1-(6-(4-(hydroxymethyl)piperidin-1-yl)-2-(trifluoromethyl)pyrimidin-4-yl)azetidine-2-carboxamide] | < 100 | 75
5 | N#Cc1ccc(CCNC(=O)[C@@H]2CCN2c2cc(N3CCC(CCNc4c(NCC(=O)O)c(=O)c4=O)CC3)nc(C(F)(F)F)n2)cc1 [Compound 302, (S)-2-((2-((2-(1-(6-(2-((4-cyanophenethyl)carbamoyl)azetidin-1-yl)-2-(trifluoromethyl)pyrimidin-4-yl)piperidin-4-yl)ethyl)amino)-3,4-dioxocyclobut-1-en-1-yl)amino)acetic acid] | < 100 | 3.7
6 | N#Cc1ccc(CCNC(=O)[C@@H]2CCN2c2cc(N3CCC(CCCC(=O)NCP(=O)(O)O)CC3)nc(C(F)(F)F)n2)cc1 [Compound 362, (S)-((4-(1-(6-(2-((4-cyanophenethyl)carbamoyl)azetidin-1-yl)-2-(trifluoromethyl)pyrimidin-4-yl)piperidin-4-yl)butanamido)methyl)phosphonic acid] | < 100 | 36
7 | N#Cc1ccc(CCNC(=O)[C@@H]2CCCN2c2cc(N3CCC(CCCC(=O)N[C@@H](CCCNC(=N)N)C(=O)N[C@@H](CCCNC(=N)N)C(=O)O)CC3)cc(C(F)(F)F)n2)cc1 [Compound 202, (S)-2-((S)-2-(4-(1-(2-((S)-2-((4-cyanophenethyl)carbamoyl)pyrrolidin-1-yl)-6-(trifluoromethyl)pyridin-4-yl)piperidin-4-yl)butanamido)-5-guanidinopentanamido)-5-guanidinopentanoic acid] | < 100 | < 0.1
8 | N#CCCN1CCN(c2cc(N3CCC[C@H]3C(=O)NCCc3ccc(C#N)cc3)nc(C(F)(F)F)n2)CC1 [Compound 32] | 100 to 999 | 1350
9 | COc1cc(C(F)(F)F)ccc1CCNC(=O)[C@@H]1CCN1c1cc(N2CCC(CCC(=O)NCCS(=O)(=O)O)CC2)nc(C(F)(F)F)n1 [Compound 259] | 100 to 999 | 27
10 | O=C(O)CC[C@@H](NC(=O)CCCC1CCN(c2cc(N3CC[C@H]3C(=O)NCCc3ccc(C(F)(F)F)cc3)nc(C(F)(F)F)n2)CC1)C(=O)O [Compound 294, (R)-2-(4-(1-(2-(trifluoromethyl)-6-((S)-2-((4-(trifluoromethyl)-phenethyl)carbamoyl)azetidin-1-yl)pyrimidin-4-yl)piperidin-4-yl)butanamido)pentanedioic acid] | < 100 | 1.7
11 | N#Cc1ccc(CCNC(=O)[C@@H]2CCCN2c2cc(N3CCC(CCCC(=O)NCCCS(=O)(=O)O)CC3)nc(C(F)(F)F)n2)cc1 [Compound 63, (S)-3-(4-(1-(6-(2-((4-cyanophenethyl)carbamoyl)pyrrolidin-1-yl)-2-(trifluoromethyl)pyrimidin-4-yl)-piperidin-4-yl)butanamido)propane-1-sulfonic acid] | < 100 | 1.3
12 | N#Cc1ccc(CCNC(=O)[C@@H]2CCCN2c2cc(N3CCC(CCCC(=O)NCCCC[C@H](NC(=N)N)C(=O)O)CC3)nc(C(F)(F)F)n2)cc1 [Compound 129, (S)-6-(4-(1-(6-((S)-2-((4-cyanophenethyl)carbamoyl)pyrrolidin-1-yl)-2-(trifluoromethyl)pyrimidin-4-yl)piperidin-4-yl)butanamido)-2-guanidinohexanoic acid] | 100 to 999 | 0.6
13 | N#Cc1ccc(CCNC(=O)[C@@H]2CCCN2c2cc(-c3ccc(CO)cc3)cc(C(F)(F)F)n2)cc1 [Compound 204, (S)—N-(4-cyanophenethyl)-1-(4-(4-(hydroxymethyl)phenyl)-6-(trifluoromethyl)pyridin-2-yl)pyrrolidine-2-carboxamide] | 100 to 999 | 4.4
14 | CS(=O)(=O)NCCOCCNC(=O)NCCC1CCN(c2cc(N3CC[C@H]3C(=O)NCCc3ccc(C#N)cc3)nc(C(F)(F)F)n2)CC1 [Compound 292, (S)-N-(4-cyanophenethyl)-1-(6-(4-(2-(3-(2-(2-(methylsulfonylamino)-ethoxy)ethyl)ureido)ethyl)piperidin-1-yl)-2-(trifluoromethyl)pyrimidin-4-yl)azetidine-2-carboxamide] | 100 to 999 | 1.3

Next, values leading:

Row | EC50 (Mouse STC-1 cells) [nM] | Cmax [1] [ng/mL] | Structure (SMILES)
15 | 100 to 999 | 30 | N#Cc1ccc(CCNC(=O)[C@@H]2CCCN(c3cc(N4CCC(CCNC(=O)NCCC(=O)O)CC4)nc(C(F)(F)F)n3)C2)cc1 [Compound 347, (R)-3-(3-(2-(1-(6-(3-((4-cyanophenethyl)carbamoyl)piperidin-1-yl)-2-(trifluoromethyl)pyrimidin-4-yl)piperidin-4-yl)ethyl)ureido)propanoic acid]
16 | 100 to 999 | 2.5 | N#Cc1ccc(CCNC(=O)[C@@H]2CCCN2c2cc(N3CCC(CCNc4c(NCCC(=O)O)c(=O)c4=O)CC3)nc(C(F)(F)F)n2)cc1 [Compound 368, (S)-3-((2-((2-(1-(6-(2-((4-cyanophenethyl)carbamoyl)pyrrolidin-1-yl)-2-(trifluoromethyl)pyrimidin-4-yl)piperidin-4-yl)ethyl)amino)-3,4-dioxocyclobut-1-en-1-yl)amino)propanoic acid]
17 | < 100 | < 1 | N#Cc1ccc(CCNC(=O)[C@@H]2CCN2c2cc(N3CCC(CCNC(=O)NCCS(=O)(=O)O)CC3)nc(C(F)(F)F)n2)cc1 [Compound 271, (S)-2-(3-(2-(1-(6-(2-((4-cyanophenethyl)carbamoyl)azetidin-1-yl)-2-(trifluoromethyl)pyrimidin-4-yl)piperidin-4-yl)ethyl)ureido)-ethanesulfonic acid]
18 | < 100 | 171 | N#Cc1ccc(CCNC(=O)[C@@H]2CCCN2c2cc(N3CCC(CCO)CC3)nc(C(F)(F)F)n2)cc1 [Compound 22]
19 | 100 to 999 | 3.2 | N#Cc1ccc(CCNC(=O)[C@@H]2CCCN2c2cc(N3CCC(CCCC(=O)NCCC(=O)NC(CO)(CO)CO)CC3)nc(C(F)(F)F)n2)cc1 [Compound 109, (S)—N-(4-cyanophenethyl)-1-(6-(4-(4-((3-((1,3-dihydroxy-2-(hydroxymethyl)propan-2-yl)amino)-3-oxopropyl)amino)-4-oxobutyl)piperidin-1-yl)-2-(trifluoromethyl)-pyrimidin-4-yl)pyrrolidine-2-carboxamide]
20 | 100 to 999 | 1.7 | N#Cc1ccc(CCNC(=O)[C@@H]2CCCN2c2cc(N3CCC(CCNc4c(NCP(=O)(O)O)c(=O)c4=O)CC3)nc(C(F)(F)F)n2)cc1 [Compound 369, (S)-(((2-((2-(1-(6-(2-((4-cyanophenethyl)carbamoyl)pyrrolidin-1-yl)-2-(trifluoromethyl)pyrimidin-4-yl)piperidin-4-yl)ethyl)amino)-3,4-dioxocyclobut-1-en-1-yl)amino)methyl)phosphonic acid]
21 | < 100 | 1.4 | N#Cc1ccc(CCNC(=O)[C@@H]2CCCN2c2cc(N3CCC(CCNC(=O)[C@@H](N)CS(=O)(=O)O)CC3)nc(C(F)(F)F)n2)cc1 [Compound 123, (R)-2-amino-3-((2-(1-(6-((S)-2-((4-cyanophenethyl)carbamoyl)pyrrolidin-1-yl)-2-(trifluoromethyl)pyrimidin-4-yl)piperidin-4-yl)ethyl)amino)-3-oxopropane-1-sulfonic acid]
22 | 100 to 999 | 55 | N#Cc1ccc(CCNC(=O)[C@@H]2CCCN2c2cc(N3CCC(CCCC(=O)O)CC3)nc(C(F)(F)F)n2)cc1 [Compound 29]
23 | < 100 | 43 | NS(=O)(=O)CCNC(=O)CCCC1CCN(c2cc(N3CCC[C@H]3C(=O)NCCc3ccc(C(F)(F)F)cc3)nc(C(F)(F)F)n2)CC1 [Compound 59, (S)-1-(6-(4-(4-oxo-4-((2-sulfamoylethyl)amino)butyl)piperidin-1-yl)-2-(trifluoromethyl)pyrimidin-4-yl)-N-(4-(trifluoromethyl)phenethyl)-pyrrolidine-2-carboxamide]
24 | 100 to 999 | 20 | O=C(O)CCCC1CCN(c2cc(N3CCC[C@@H](C(=O)NCCc4ccc(C(F)(F)F)cc4)C3)nc(C(F)(F)F)n2)CC1 [Compound 330, (R)-4-(1-(2-(trifluoromethyl)-6-(3-((4-(trifluoromethyl)phenethyl)carbamoyl)piperidin-1-yl)pyrimidin-4-yl)piperidin-4-yl)butanoic acid]
